“Also recorded” adds a separate entry of the source. Counter-ions that a name gives are not always drawn. Blank lines part the entries; values can stand above or below the molecule they belong to.
Experiments:
[1] = test system: KRas G12v, HRas G12V, Kras Q61R, Rac1 L61, CDC42; assay: Equilibrium kinetics assays, real-time Bodipy FL-GTP association and dissociation; format: binding, Human; settings: for displacement of pre-bound Bodipy FL-GTP: pre-binding at 4° C. or RT in the presence of Mg2+
Method: Equilibrium Kinetics Assays: GTPase-coupled beads were prepared as described above and were kept on ice until used. Reactions were performed at room temperature in amber micro-centrifuge tubes in an appropriate volume of assay buffer. Bead mixtures were initially incubated on a rotator with Guanabenz acetate (100 μM) or DMSO for 30 min at 4° C. prior to the addition of 1 nM Bodipy FL-GTP. Real-time binding kinetics was recorded using an Accuri C6 flow cytometer. Binding association was followed for 15 minutes at which time excess GTP was added. Disassociation kinetics was followed for an additional 25 minutes. Data was analyzed using GraphPad Prism software. The association time course was fitted to a two phase exponential association and the dissociation time course was fitted to a two phase decay (exponential).
To determine mechanism of action, we evaluated binding and dissociation of Bodipy FL-GTP in real-time kinetic experiments in the presence of Guanabenz acetate or GTP. Tests included pre-binding of Bodipy-FL GTP at 4′ C. or RT in the presence of Mg^2+.
It was then elected to perform association rate analysis, using the order of addition of reagents used in screening, where guanabenz was added first, incubated at 4° C., then Bodipy FL-GTP was added at room temperature.

[2] = test system: Q61 KRas mutants; assay: Multiplex flow cytometry Bodipy FL-GTP binding, compound dose response, Q61 mutants; parameters: species or system Human; settings: 10 nM Bodipy FL-GTP
Method: Bead Coupling: 4 μm diameter, glutathione-beads (GSH-beads), distinguished by ten different intensities of red fluorescence (varying by several orders of magnitude of emission at 665±10 nm with excitation at 635 nm) were obtained by special order from Duke Scientific Corp. Each polystyrene bead set is supplied at 1.4×10^8 beads/ml with approximately 1.2×10^6 glutathione sites per bead (determined by using GST—green fluorescent protein^42). Prior to incubation with individual GST-GTPase fusion proteins, an appropriate volume of each bead slurry was incubated for 30 minutes at room temperature in assay buffer (20 mM HEPES pH 7.5, 125 μM […], 1 mM MgCl2, 0.5 mM EDTA pH 8.0, 0.01% NP-40) supplemented with 1 mM dithiothreitol and 0.1% BSA. Following this initial incubation, passivated beads were collected by centrifugation and resuspended in assay buffer with individual GST-GTPase fusion proteins at a final concentration of […]. Overnight coupling reactions were carried out at 4° C. with rotation. The amount of each bead type used for coupling and the final volume of the coupling reaction was determined by the experimental protocol. Typically, bead sets are used at a final concentration of 200 bead/μL. To remove unbound GST-GTPase, bead sets were washed twice by centrifugation with ice-cold assay buffer. Individually coated beads were pooled together and kept cold in an appropriate volume before use in binding assays. Bead-bound proteins are sufficiently stable to study secondary interactions between GTPase-GST chimera's and Bodipy-FL GTP^54. Note that an extra GSH-bead set is included that is not protein coupled. This set serves as a ‘scavenger’ for proteins that might dissociate during the binding assay.
For assay screening plates, compound libraries were first dispensed into columns 3-22 using a Labcyte 555 Echo Acoustic Dispenser (San Jose, Calif.) for a final concentration of 10 μM. An equal volume (10 nL) of DMSO was added to the vehicle control wells (column 2). Following the addition of library compounds, 2 μL of assay buffer was added and the plates were mixed before addition of 5 μL of the protein-coupled bead mixtures; 10 μL of assay buffer was added to empty wells in columns 1 and 24. Empty wells serve as wash wells between compound wells and control wells. Plates were mixed and incubated on a rotator for 30 minutes at 4° C. before the addition of 3 μL of Bodipy FL-GTP resulting in a final concentration 10 nM Bodipy FL-GTP. Plates were mixed and incubated for 1 hour at 4° C. Negative controls, containing bead mixtures, Bodipy FL-GTP, and 30 μM unlabeled GTP were assayed separately. Dose response plates were assembled similarly.
Data Acquisition: Assay plates were sampled using the HyperCyt™ high throughput flow cytometry platform (Intellicyt; Albuquerque, N. Mex.). During sampling, the probe moves from well to well and samples 1-2 μL from each well with 0.4 sec transit time in the air before sampling the next well. The resulting sample stream consisting of 384 bubble-separated samples is delivered to an Accuri C6 flow cytometer (BD Biosciences; San Jose, Calif.). Bodipy FL-GTP fluorescence is excited at 488 nm and detected with a 533/30 bandpass filter. […] Gating based on red fluorescence emission distinguishes the separately coated beads. […]

[3] = test system: Ras family GTPases (KRas WT, G12v, G13d, G12a, G12c, G12d, Q61H, Q61L, Q61R; HRas WT, HRas G12v; CDC42 WT, CDC42 L61; Rac1 WT, Rac1 L61); assay: Multiplex flow cytometry Bodipy FL-GTP binding, compound screen and dose response; settings: for activity or affinity relative to other compounds / selectivity among GTPases (RAS vs non-RAS, individual proteins): multiplex dose response; for class of modulation of Bodipy-GTP binding to Ras family GTPases (pan activator, pan inhibitor, selective inhibitor, mixed activity modulator): multiplex, 10 nM Bodipy FL-GTP, compound 100-0.015 μM, normalized to DMSO
Method: Following this initial incubation, passivated beads were collected by centrifugation and resuspended in assay buffer with individual GST-GTPase fusion proteins at a final concentration of 1 M. Overnight coupling reactions were carried out at 4° C. with rotation. The amount of each bead type used for coupling and the final volume of the coupling reaction was determined by the experimental protocol. Typically, bead sets are used at a final concentration of 200 bead/μL. To remove unbound GST-GTPase, bead sets were washed twice by centrifugation with ice-cold assay buffer. Individually coated beads were pooled together and kept cold in an appropriate volume before use in binding assays. Bead-bound proteins are sufficiently stable to study secondary interactions between GTPase-GST chimera's and Bodipy-FL GTP^54. Note that an extra GSH-bead set is included that is not protein coupled. This set serves as a ‘scavenger’ for proteins that might dissociate during the binding assay.
Data Acquisition: Assay plates were sampled using the HyperCyt™ high throughput flow cytometry platform (Intellicyt; Albuquerque, N. Mex.). During sampling, the probe moves from well to well and samples 1-2 μL from each well with 0.4 sec transit time in the air before sampling the next well. […] Plate data are acquired as time-resolved files that are parsed by software-based well identification algorithms, segregating individual well data that is merged with compound library files to determine compound activity in each well. Gating based on red fluorescence emission distinguishes the separately coated beads. Plate performance was validated using the Z-prime calculation^58.
Dose response data points were fitted by Prism® software (GraphPad Software Inc., San Diego, Calif.) using nonlinear least-squares regression in a sigmoidal dose-response model with variable slope, also known as the 4-parameter logistic equation.
Each well of an assay plate contained 10 sets of beads with variable red fluorescent intensities. Nine protein-coupled bead sets, carrying the different GST-KRas proteins were combined with an uncoupled GSH-bead that serves as a scavenger for GST-proteins that might dissociate during the assay. Bead mixtures were dispensed into individual wells of a 384-well assay plate and incubated with fluorescent GTP in the presence of library compounds. The final concentration of reagents in each assay well was 10 μM compound, 10 nM Bodipy FL-GTP, and 0.1% DMSO. Each bead set was added at 200 beads/μL. Each plate was analyzed both in forward (starting with A1) and reverse direction to account for fluorescent compounds that can carryover during sampling and effect subsequent sample values. […] Excess GTP containing wells were evaluated separately and were used, along with the DMSO control wells, to calculate a Z′ value for each bead set. […] A secondary single point evaluation was performed on these identified primary hits.

[4] = test system: H-Ras, H-RasG12V, Rab and Rho subfamilies; settings: earlier studies; cited from earlier work
[5] = test system: GTPases (Rac1 and Cdc42); settings: in cells, earlier studies; read-out: IC50 values for inhibitory activity against the GTPases; cited from earlier work
[6] = target: KRas proteins (Wild type, G12v, G13d, G12a, G12c, G12d, Q61L, and Q61R); assay: Dose dependent Bodipy FL-GTP binding assay, KRas multiplex; parameters: species or system Human; settings: separate KRas proteins, 1 hour at 4° C.; read-out: binding affinities
Description: Bead Coupling: 4 μm diameter, glutathione-beads (GSH-beads), distinguished by ten different intensities of red fluorescence (varying by several orders of magnitude of emission at 665±10 nm with excitation at 635 nm) were obtained by special order from Duke Scientific Corp. Each polystyrene bead set is supplied at 1.4×10^8 beads/ml with approximately 1.2×10^6 glutathione sites per bead (determined by using GST—green fluorescent protein^42). […] The amount of each bead type used for coupling and the final volume of the coupling reaction was determined by the experimental protocol. […]
Dose Dependent Bodipy FL-GTP Binding Assays: For dose dependence binding assays, GTPase-coupled bead sets were incubated on a rotator for 1 hour at 4° C. with varying concentrations of Bodipy FL-GTP (0.3-300 nM). […] Non-specific binding of Bodipy-FL GTP was assessed by incubating coupled beads with excess GTP prior to the addition of the Bodipy analogue. […]
Assay Plate Assembly: Plate assays were performed in 384-well microtiter plates (Greiner Bio-one, #784101); plates were assembled using a BioTek MultiFlo™ Microplate Dispenser. For dose-dependent Bodipy FL-GTP binding assays, total and non-specific binding were assessed by pre-incubation (30 min/4° C.) in the absence or presence of 30 μM GTP, respectively. […]

[7] = test system: GTPases; settings: cited from earlier work

displacement of pre-bound Bodipy FL-GTP [1]: could be displaced by GTP
Molecule: Nc1nc2c(ncn2[C@@H]2O[C@H](COP(=O)(O)OP(=O)(O)OP(=O)(O)O)[C@@H](O)[C@H]2O)c(=O)[nH]1 [GTP]

effect on GTP binding to Q61 KRas mutants [2]: not to Q61 KRas mutants | class of modulation of Bodipy-GTP binding to Ras family GTPases (pan activator, pan inhibitor, selective inhibitor, mixed activity modulator) ([3]; hydrochloride): selective inhibitors
Molecule: CN1CCN(CCCN2c3ccccc3Sc3ccc(C(F)(F)F)cc32)CC1 [Trifluperazine Hydrochloride]
class of modulation of Bodipy-GTP binding to Ras family GTPases (pan activator, pan inhibitor, selective inhibitor, mixed activity modulator) ([3]; listed as trifluoperazine, Hydrochloride): Selective inhibitors; also recorded: weak inhibition

effect on GTP binding to Q61 KRas mutants [2]: activates Q61 KRas mutants | selectivity among GTPases (RAS vs non-RAS, individual proteins) [3]: RAS activator, non-RAS inhibitor | class of modulation of Bodipy-GTP binding to Ras family GTPases (pan activator, pan inhibitor, selective inhibitor, mixed activity modulator) [3]: modulators with mixed activity | class of modulation of Bodipy-GTP binding to Ras family GTPases (pan activator, pan inhibitor, selective inhibitor, mixed activity modulator) ([3]; listed as SF1760): mixed activity
Molecule: CC(C)(C)C(=O)Nc1ccc2c(c1)C(=O)C(=O)c1ccccc1-2 [SF1670]

effect on GTP binding to Q61 KRas mutants [2]: not to Q61 KRas mutants | class of modulation of Bodipy-GTP binding to Ras family GTPases (pan activator, pan inhibitor, selective inhibitor, mixed activity modulator) ([3]; listed as NSC663284): Selective inhibitors
Molecule: O=C1C(Cl)=C(NCCN2CCOCC2)C(=O)c2ncccc21 [NSC 663284]

displacement of pre-bound Bodipy FL-GTP [1]: not able to displace Bodipy FL-GTP | effect on GTP binding to Q61 KRas mutants [2]: not to Q61 KRas mutants | class of modulation of Bodipy-GTP binding to Ras family GTPases (pan activator, pan inhibitor, selective inhibitor, mixed activity modulator) [3]: selective inhibitors | class of modulation of Bodipy-GTP binding to Ras family GTPases (pan activator, pan inhibitor, selective inhibitor, mixed activity modulator) ([3]; listed as guanabenz acetate): Selective inhibitors
Molecule: N=C(N)N/N=C/c1c(Cl)cccc1Cl [Guanabenz acetate]
association of Bodipy FL-GTP ([1]; guanabenz added first at 4° C., then Bodipy FL-GTP at room temperature, KRas G12v and HRas G12V vs Kras Q61R, Rac1 L61 and CDC42): Dramatic differences in association | dissociation of Bodipy FL-GTP ([1]; stable GTPases in the absence of Mg): did not induce dissociation | selectivity among GTPases (RAS vs non-RAS, individual proteins) [3]: selective for KRas WT, the KRas G12 mutants, and the HRas proteins | activity or affinity relative to other compounds ([3]; listed as guanabenz acetate): most active; also recorded: comparable activity to a recently described KRas inhibitor with low μM affinity | selectivity among GTPases (RAS vs non-RAS, individual proteins) ([3]; listed as guanabenz acetate): does not appear to limit selectivity to G12D

The next lines start with the molecule.

Molecule: CN(C)CC/C=C1/c2ccccc2Sc2ccc(Cl)cc21 [Chlorprothixene hydrochloride]
effect on GTP binding to Q61 KRas mutants [2]: not to Q61 KRas mutants | activity or affinity relative to other compounds [3]: most active | selectivity among GTPases (RAS vs non-RAS, individual proteins) [3]: selective for KRas WT, the KRas G12 mutants, and the HRas proteins | class of modulation of Bodipy-GTP binding to Ras family GTPases (pan activator, pan inhibitor, selective inhibitor, mixed activity modulator) ([3]; hydrochloride): selective inhibitors | class of modulation of Bodipy-GTP binding to Ras family GTPases (pan activator, pan inhibitor, selective inhibitor, mixed activity modulator) ([3]; listed as chlorprothixene hydrochloride, hydrochloride): Selective inhibitors | class of modulation of Bodipy-GTP binding to Ras family GTPases (pan activator, pan inhibitor, selective inhibitor, mixed activity modulator) ([3]; listed as chlorproxithene, hydrochloride): selective inhibition

Molecule: CC1(C)Cc2c(sc(NC(=S)NC(=O)c3ccccc3)c2C(=O)O)CO1 [CID1067700]
inhibitory activity on guanine nucleotide binding [4]: inhibitory activity against H-Ras and H-RasG12V; also recorded: broad spectrum inhibitor of the Rab and Rho subfamilies; also recorded: competitive inhibitor of nucleotide binding

Molecule: O=C(c1ccccc1)c1ccc2n1CC[C@H]2C(=O)O [R-ketorolac]
IC50 [5]: 500 to 1000 nM

Molecule: Guanosine 5′-Triphosphate, BODIPY™ FL 2′-(or-3′)-O-(N-(2-Aminoethyl) Urethane), Trisodium Salt [Bodipy FL-GTP]
Kd [6]: 1 to 50 nM

Molecule: O=C(c1ccccc1)c1ccc2n1CCC2C(=O)O (stereo not drawn) [ketorolac]
reported activity [7]: inhibitors

Molecule: CSc1ccc(/C=C2/C(C)=C(CC(=O)O)c3cc(F)ccc32)cc1 [sulindac sulfide]
reported activity [7]: inhibitors

Source: patent publication US20210041441A1, “DISCOVERY OF NOVEL MOLECULES AND REPURPOSED DRUGS FOR RAS FAMILY GTPases” (UNM Rainforest Innovations, priority 2018, published 2021)
